From ChEMBL document CHEMBL3886568, “Pyridine derivatives as agonists of the CB2 receptor” (2016)

Molecular target: Cannabinoid receptor 1 (Homo sapiens, UniProt P21554)
Assay: cAMP Assay: CHO cells expressing human CB1 or CB2 receptors are seeded 17-24 hours prior to the experiment 50.000 cells per well in a black 96 well plate with flat clear bottom (Corning Costar #3904) in DMEM (Invitrogen No. 31331), 1×HT supplement, with 10% fetal calf serum and incubated at 5% CO2 and 37° C. in a humidified incubator. The growth medium was exchanged with Krebs Ringer Bicarbonate buffer with 1 mM IBMX and incubated at 30° C. for 30 min Compounds were added to a final assay volume of 100 ul and incubated for 30 min at 30° C. Using the cAMP-Nano-TRF detection kit the assay (Roche Diagnostics) was stopped by the addition of 50 ul lysis reagent (Tris, NaCl, 1.5% Triton X100, 2.5% NP40, 10% NaN3) and 50 ul detection solutions (20 uM mAb Alexa700-cAMP 1:1, and 48 uM Ruthenium-2-AHA-cAMP) and shaken for 2 h at room temperature. The time-resolved energy transfer is measured by a TRF reader (Evotec Technologies GmbH), equipped with a ND:YAG laser as excitation source. The plate is measured twice with the excitation at 355 nm and at the emission with a delay of 100 ns and a gate of 100 ns, total exposure time 10 s at 730 (bandwidth 30 nm) or 645 nm (bandwidth 75 nm), respectively. The FRET signal is calculated.
Format: functional, cell-based

Chain of Cannabinoid receptor 1 (P21554 whole entry): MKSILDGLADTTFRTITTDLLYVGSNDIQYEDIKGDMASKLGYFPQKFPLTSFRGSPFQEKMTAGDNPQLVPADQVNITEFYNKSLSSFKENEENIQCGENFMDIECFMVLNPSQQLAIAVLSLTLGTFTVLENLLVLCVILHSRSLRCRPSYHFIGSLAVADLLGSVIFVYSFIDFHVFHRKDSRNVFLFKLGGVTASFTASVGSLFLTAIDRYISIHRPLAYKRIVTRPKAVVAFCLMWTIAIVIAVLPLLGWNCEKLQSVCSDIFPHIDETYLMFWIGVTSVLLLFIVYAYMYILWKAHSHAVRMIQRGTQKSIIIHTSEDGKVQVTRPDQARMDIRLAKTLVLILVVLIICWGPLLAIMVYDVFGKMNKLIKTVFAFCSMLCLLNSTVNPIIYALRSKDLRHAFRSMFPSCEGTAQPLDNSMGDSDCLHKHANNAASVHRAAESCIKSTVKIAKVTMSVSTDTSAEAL

Q: How did the EC50 turn out when O=C(N[C@@H](CC1CC1)C(=O)NC1CCC(O)C1)c1ccc(C2CC2)c(OCC2CC2)n1 (stereo partly specified) was run?
A: Its EC50 is greater than 10 µM.
